Laboratory results taken from US20040127472A1, “Use of anecortave acetate for the protection of visual acuity in patients with age related macular degeneration” (priority 2002, published 2004).

Assays:
[1] = biological target: matrix metalloproteinase-3 (Homo sapiens, UniProt P08254); details: cited from earlier work
[2] = tested on: subfoveal CNV lesion secondary to AMD; test: Clinical trial, CNV lesion surface areas from standardized fluorescein angiograms (DARC); type: in vivo, patients; details: for inhibition of lesion growth versus placebo: Month 6
From the text: (§1) This ongoing trial was initiated to compare the clinical efficacy of anecortave acetate versus placebo treatment for preservation (maintenance) of vision and inhibition of CNV lesion growth. Patients with a logMAR visual acuity of 0.3 (20/40 Snellen equivalent) to 1.2 (20/320 Snellen equivalent) and primary or recurrent subfoveal choroidal neovascularization (CNV) secondary to AMD with a lesion up to 30.48mm^2 (12 disc areas) in size were enrolled. At Baseline and follow-up visits, best-corrected logMAR visual acuity was obtained on all patients using guidelines previously established for the Early Treatment Diabetic Retinopathy Study. Patient lesion eligibility for this study was determined from standardized fluorescein angiograms at the Digital Angiography Reading Center (DARC) by certified Readers (trained retina specialists) prior to enrollment and treatment. The DARC also evaluated changes from Baseline in the fluorescein angiographic characteristics of the lesions in masked fashion. Each data point represents the average of at least two independent evaluations by DARC Readers. Because all angiographic data for this study is being collected using the same fimdus camera and digital camera systems and stored as uncompressed digital images, the actual lesion surface areas can be more closely approximated in mm^2 rather than requiring the disc area “best-fit” estimates previously used for film angiographic data.
(§2) Clinical efficacy data is being obtained from evaluations of best-corrected logMAR visual acuity and standardized fluorescein angiograms. Clinical safety data obtained from general physical examinations, laboratory evaluations of blood and urine, and complete ophthalmic examinations, including indocyanine green angiography, continue to be periodically evaluated by the Independent Safety Committee overseeing this study. Clinical data from evaluations for safety and efficacy performed at Day 1-2, Week 2, Week 6, Month 3, and Month 6 following patient randomization and treatment are reported here.
The primary efficacy outcome for this ongoing study is the mean change from Baseline in best-corrected logMAR visual acuity. Secondary efficacy outcomes are: the percentage of patients with preservation or maintenance of vision (defined as loss of less than three logMAR lines [less than 15 logMAR letters] of visual acuity); the percentage of patients with clinically significant worsening of vision (defined as a loss of at least three logMAR lines [at least 15 logMAR letters] of visual acuity); the percentage of patients with severe vision loss (defined as a loss of at least six logMAR lines [at least 30 logMAR letters] of visual acuity); and changes in CNV lesion characteristics (defined as total lesion area, total CNV and total classic CNV).
All efficacy analyses were based on the intent-to-treat principle. All patients received the medication to which they were assigned, and were analyzed accordingly. Last-observation-carry-forward was used to impute missing values. Baseline comparisons were tested using analysis of variance (for continuous outcomes) and Pearson's chi square (for binary outcomes). Changes from baseline in visual acuity and lesion parameters were tested in a repeated measures analysis of variance model with appropriate contrasts for the 6-month comparisons. Comparisons of binary outcomes at Month 6 were evaluated using Pearson's chi-square tests. All analyses of ocular outcomes are based on changes in the study (i.e., treated) eye.

glucocorticoid receptor = biological target: T1, glucocorticoid receptor (Homo sapiens, UniProt P04150); details: preclinical data (refs 8,9); cited from earlier work
T1 sequence (P04150 1-777): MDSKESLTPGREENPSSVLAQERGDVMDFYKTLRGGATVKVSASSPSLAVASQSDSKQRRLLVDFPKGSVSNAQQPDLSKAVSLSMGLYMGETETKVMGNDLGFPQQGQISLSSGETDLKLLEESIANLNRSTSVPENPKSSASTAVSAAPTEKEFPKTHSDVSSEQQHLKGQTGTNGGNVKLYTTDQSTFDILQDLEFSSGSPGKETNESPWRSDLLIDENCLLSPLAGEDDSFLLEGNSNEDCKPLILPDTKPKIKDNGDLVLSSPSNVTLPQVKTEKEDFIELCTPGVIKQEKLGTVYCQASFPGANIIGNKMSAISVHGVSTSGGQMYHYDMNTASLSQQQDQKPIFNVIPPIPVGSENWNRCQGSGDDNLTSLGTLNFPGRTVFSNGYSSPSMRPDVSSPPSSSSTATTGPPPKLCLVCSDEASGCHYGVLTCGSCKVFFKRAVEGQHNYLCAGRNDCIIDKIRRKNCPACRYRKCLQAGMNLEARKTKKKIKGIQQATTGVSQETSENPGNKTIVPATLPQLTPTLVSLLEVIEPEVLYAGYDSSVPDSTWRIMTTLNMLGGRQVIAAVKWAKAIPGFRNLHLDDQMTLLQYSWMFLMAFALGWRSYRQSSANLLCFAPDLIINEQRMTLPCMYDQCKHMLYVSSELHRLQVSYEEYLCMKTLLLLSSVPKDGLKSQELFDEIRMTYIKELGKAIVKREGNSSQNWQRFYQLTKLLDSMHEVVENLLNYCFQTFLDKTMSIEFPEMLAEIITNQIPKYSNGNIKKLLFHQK

[3] = biological target: urokinase-like plasminogen activator (Homo sapiens, UniProt P00749); details: cited from earlier work
[4] = tested on: patients with subfoveal choroidal neovascularization (CNV) secondary to AMD; test: Clinical trial, best-corrected logMAR visual acuity after a single posterior juxtascleral administration; type: in vivo; details: for LogMAR Change 1 Line Improved, % of patients / LogMAR Change 1 Line Worsened, % of patients / LogMAR Change 2 Lines Worsened, % of patients / LogMAR Change No Change, % of patients / LogMAR Change ≧2 Lines Improved, % of patients / LogMAR Change ≧3 Lines Worsened (clinically significant vision loss), % of patients: Month 6 vs Baseline
From the text: as §1
The 128 patients in this double-masked, dose-response study were enrolled and treated between April 1999 and May 2001 by 18 participating sites in the US and EU. Prior to treatment, patients were enrolled and equally randomized to anecortave acetate sterile suspension for injection 30 mg (N=33), 15 mg (N=33), or 3 mg (N=32) or to placebo (vehicle, N=30). Masking of the clinical sites as to treatment group is being maintained in two ways. Study medication is masked by placing the treatment kits including study medication and supplies for the posterior juxtascleral administration in sealed opaque boxes identified by patient number only. The boxes were numbered sequentially at each clinical site and patients were assigned the next available sequential number upon enrollment. The randomization was built into the sequential numbering of the treatment kits and blocked within each site to maintain equal distribution across treatment assignments. Masking as to treatment group is also being maintained at each site by having an unmasked injecting investigator perform the treatments and a masked examining investigator perform the subsequent evaluations. Upon enrollment of each patient, anecortave acetate or placebo was administered behind the eye as a 0.5 mL posterior juxtascleral injection onto the outer surface of the sclera near the macula using a specially designed cannula. The cannula is described in commonly owned U.S. Pat. No. 6,413,245B1.
as §2
The primary efficacy outcome for this ongoing study is the mean change from Baseline in best-corrected logMAR visual acuity. […]

[5] = Clinical trial, safety evaluation (ophthalmic and physical examinations, blood and urine); type: in vivo, patients
From the text: as §2
Following completion of the Month 6 visit by all patients, the accumulated safety data were evaluated by the Independent Safety Committee overseeing this study. […] The most common ocular changes reported were changes in lens opacity using the Lens Opacity Classification System (LOCS) II, and included reports of nuclear color, nuclear opalescence, cortical, and posterior subcapsular changes. Cataracts are a common intercurrent disorder in this patient population, and the changes seen were documented in all treatment groups and in contralateral (untreated) eyes. The cataractous changes reported were described as mild and typically unrelated to treatment. The second most common ocular change, a decrease in vision (defined as a decrease of ≧4 logMAR lines from the previous visit), is also a common problem in this patient population. These vision decreases occurred in all treatment groups and in the contralateral eye. Other ocular changes (occurring with a frequency greater than 5%) were ptosis, ocular pain, subconjunctival hemorrhage, ocular pruritis, ocular burning/stinging, pupil disorders, foreign body sensation, ocular hyperemia, and abnormal vision. These changes were reported in all four treatment groups, in both treated eyes and contralateral eyes, were characterized as primarily mild, were generally not attributed to treatment, and were transient in nature. The single report of an IOP increase (≧10 mmHg) from Baseline occurred in a patient treated with anecortave acetate 30 mg and was attributed to intercurrent illness. Of the ocular changes reported, those most frequently attributed to study treatment were ptosis, ocular pain, subconjunctival hemorrhage, ocular pruritis, and ocular burning/stinging. These treatment-related events were mostly mild, transient, and seen within all four treatment groups.
The most common non-ocular changes from Baseline reported for this study were hypertension, peripheral edema, depression, and arthritis, none of which were attributed to treatment.

[6] = Preclinical drug levels after slow-release depot adjacent to the posterior scleral surface; type: in vivo; details: data not shown
[7] = tested on: plasminogen activator inhibitor 1; details: cited from earlier work
[8] = 3 mg single administration, n = 32
[9] = 15 mg single administration, n = 33
[10] = 15 mg single administration, n = 33, listed as Anec Acet
[11] = 30 mg single administration, n = 33

matrix metalloproteinase-3, sequence (P08254 100-477, species assumed): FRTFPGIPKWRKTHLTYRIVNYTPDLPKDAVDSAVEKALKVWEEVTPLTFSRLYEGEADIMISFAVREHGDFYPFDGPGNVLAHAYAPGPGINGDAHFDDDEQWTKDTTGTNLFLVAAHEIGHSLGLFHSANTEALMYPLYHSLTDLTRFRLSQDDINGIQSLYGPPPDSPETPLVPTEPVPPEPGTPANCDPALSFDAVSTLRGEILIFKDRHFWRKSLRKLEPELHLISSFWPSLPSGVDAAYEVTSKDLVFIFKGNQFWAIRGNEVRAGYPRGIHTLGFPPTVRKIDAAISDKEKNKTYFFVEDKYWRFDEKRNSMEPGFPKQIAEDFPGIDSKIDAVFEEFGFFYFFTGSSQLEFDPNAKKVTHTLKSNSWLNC

CC(=O)OCC(=O)[C@@]1(O)CC[C@H]2[C@@H]3CCC4=CC(=O)CC[C@]4(C)C3=CC[C@@]21C [anecortave acetate, 4,9(11)-pregnadien-17α,21-diol-3,20 dione-21 acetate]
effect on matrix metalloproteinase-3 [1]: inhibits
inhibition of lesion growth versus placebo ([2]; 3 mg): trend favoring
inhibition of total CNV surface area growth, percent change from Baseline, versus placebo ([2]; 15 mg, Month 6, p=0.0001): statistically superior to placebo treatment
inhibition of total lesion surface area growth, percent change from Baseline, versus placebo ([2]; 15 mg, Month 6, p=0.0005): statistically superior to placebo treatment
inhibition of total classic CNV surface area growth, percent change from Baseline, versus placebo ([2]; 15 mg, Month 6, p=0.0008): statistically superior to placebo treatment
inhibition of lesion growth versus placebo ([2]; 30 mg): trend favoring
corticosteroid activity (glucocorticoid receptor): no measurable corticosteroid activity
effect on urokinase-like plasminogen activator [3]: inhibits
LogMAR Change 1 Line Improved, % of patients [4, 8]: 0%
LogMAR Change 1 Line Worsened, % of patients [4, 8]: 12.5%
LogMAR Change 2 Lines Worsened, % of patients [4, 8]: 18.8%
LogMAR Change No Change, % of patients [4, 8]: 37.5%
LogMAR Change ≧2 Lines Improved, % of patients [4, 8]: 6%
LogMAR Change ≧3 Lines Worsened (clinically significant vision loss), % of patients [4, 8]: 25.0%
LogMAR Change ≧2 Lines Improved, % of patients ([4]; 3 mg single administration, n = 32, listed as Anec Acet): 6.3%
<6 Lines Worse, % of patients ([4]; 3 mg, Month 6): 78.13%
Severe Vision Loss, ≧6 Lines Worse, % of patients ([4]; 3 mg, Month 6): 21.88%
mean change at Month 6 from Baseline in logMAR visual acuity, versus placebo ([4]; 3 mg, statistical significance not achieved): Trends also favor treatment
average final logMAR value ([4]; 15 mg single administration, Month 6 (20/125 Snellen equivalent; Baseline 0.73)): 0.81 logMAR
LogMAR Change 1 Line Improved, % of patients [4, 9]: 3.0%
LogMAR Change 1 Line Worsened, % of patients [4, 9]: 12.1%
LogMAR Change 2 Lines Worsened, % of patients [4, 9]: 30.3%
LogMAR Change No Change, % of patients [4, 9]: 24.2%
LogMAR Change ≧2 Lines Improved, % of patients [4, 9]: 18%
LogMAR Change ≧3 Lines Worsened (clinically significant vision loss), % of patients [4, 9]: 12%
LogMAR Change ≧2 Lines Improved, % of patients [4, 10]: 18.2%
LogMAR Change ≧3 Lines Worsened (clinically significant vision loss), % of patients [4, 10]: 12.1%
mean change from Baseline logMAR visual acuity ([4]; 15 mg single treatment, Month 6): +0.08 logMAR score
<6 Lines Worse, % of patients ([4]; 15 mg, Month 6): 96.97%
Severe Vision Loss, ≧6 Lines Worse, % of patients ([4]; 15 mg, Month 6): 3.03%
percentage of patients with preservation of vision (decrease of less than three logMAR lines from Baseline) ([4]; 15 mg, Month 6, overall analysis): 88%
percentage of patients with preservation of vision (decrease of less than three logMAR lines from Baseline) ([4]; 15 mg, Month 6, subgroup with predominantly classic CNV lesion): 92%
mean change at Month 6 from Baseline in logMAR visual acuity, versus placebo ([4]; 15 mg, p=0.0032): statistically superior to placebo treatment
LogMAR Change 1 Line Improved, % of patients [4, 11]: 12.1%
LogMAR Change 1 Line Worsened, % of patients [4, 11]: 15.2%
LogMAR Change 2 Lines Worsened, % of patients [4, 11]: 15.2%
LogMAR Change No Change, % of patients [4, 11]: 30.3%
LogMAR Change ≧2 Lines Improved, % of patients [4, 11]: 3%
LogMAR Change ≧3 Lines Worsened (clinically significant vision loss), % of patients [4, 11]: 24.2%
LogMAR Change ≧2 Lines Improved, % of patients ([4]; 30 mg single administration, n = 33, listed as Anec Acet): 3.0%
<6 Lines Worse, % of patients ([4]; 30 mg, Month 6): 75.76%
Severe Vision Loss, ≧6 Lines Worse, % of patients ([4]; 30 mg, Month 6): 24.24%
mean change at Month 6 from Baseline in logMAR visual acuity, versus placebo ([4]; 30 mg, statistical significance not achieved): Trends also favor treatment
reports of IOP increase (≧10 mmHg) from Baseline ([5]; 30 mg, attributed to intercurrent illness): single report
changes in blood chemistry, hematology, or urinalysis ([5]; all doses, 6 months): No treatment-related changes
safety evaluation by the Independent Safety Committee ([5]; all doses, after Month 6 visit): no clinically relevant medication-related or administration-related safety concerns were identified
ocular corticosteroid side effects (elevated intraocular pressure or accelerated cataract progression) ([5]; clinical study, at least 6 months exposure): no clinical evidence of ocular corticosteroid side effects
duration of therapeutic drug levels in the adjacent choroid and retina [6]: up to 6 months
effect on plasminogen activator inhibitor 1 [7]: upregulates
